Source: patent US20210038579A1, “Treatment Of Patients With Classic Fabry Disease” (Amicus Therapeutics, Inc., priority 2018, published 2021)
Where a chain is given by its changes, count along the chain named.

Tests used:
Experiment in all cases: HEK assay: α-Gal A activity in HEK-293 cell lysate with migalastat
Type in all cases: cell-based
[1] = target: T1, α-Gal A mutant form p.Arg301Gln (c.902 G > A) (Homo sapiens, UniProt P06280, R301Q)
T1 construct: expressed in transfected cells; host or cells: HEK-293
T1 sequence (P06280 32-429 R301Q): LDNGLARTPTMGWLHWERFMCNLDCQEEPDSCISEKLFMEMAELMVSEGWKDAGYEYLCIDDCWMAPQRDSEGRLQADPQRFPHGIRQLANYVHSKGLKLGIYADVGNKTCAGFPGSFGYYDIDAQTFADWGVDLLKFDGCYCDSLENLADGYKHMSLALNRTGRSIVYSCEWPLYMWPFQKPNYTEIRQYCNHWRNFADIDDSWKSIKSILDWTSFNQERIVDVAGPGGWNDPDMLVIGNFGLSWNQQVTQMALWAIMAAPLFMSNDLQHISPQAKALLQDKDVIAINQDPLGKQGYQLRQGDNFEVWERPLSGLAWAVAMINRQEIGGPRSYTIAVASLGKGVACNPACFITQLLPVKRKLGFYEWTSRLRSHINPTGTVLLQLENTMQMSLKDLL
Procedure, shortened: (§1)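 Transient HEK-293 expression of mutant α-Gal A; ±migalastat 17 nM–1 mM, 4–5 d; lysate α-Gal A by 4-MU-α-Gal fluorescence or western blot.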

[2] = target: T2, α-Gal A mutant form p.Gly258Arg (c.772 G > C) (Homo sapiens, UniProt P06280, G258R)
T2 construct: expressed in transfected cells; host or cells: HEK-293
T2 sequence (P06280 32-429 G258R): T1 sequence (P06280 32-429 R301Q) with G227R, Q270R
Procedure, shortened: as §1

[3] = target: T3, α-Gal A mutant form p.Ile253Thr (c.758 T > C) (Homo sapiens, UniProt P06280, I253T)
T3 construct: expressed in transfected cells; host or cells: HEK-293
T3 sequence (P06280 32-429 I253T): T1 sequence (P06280 32-429 R301Q) with I222T, Q270R
Procedure, shortened: as §1

[4] = target: T4, α-Gal A mutant form p.Pro205Thr (c.613 C > A) (Homo sapiens, UniProt P06280, P205T)
T4 construct: expressed in transfected cells; host or cells: HEK-293
T4 sequence (P06280 32-429 P205T): T1 sequence (P06280 32-429 R301Q) with P174T, Q270R
Procedure, shortened: as §1

[5] = target: T5, α-Gal A mutant form p.Tyr216Cys (c.647 A > G) (Homo sapiens, UniProt P06280, Y216C)
T5 construct: expressed in transfected cells; host or cells: HEK-293
T5 sequence (P06280 32-429 Y216C): T1 sequence (P06280 32-429 R301Q) with Y185C, Q270R
Procedure, shortened: as §1

[6] = +10 μM migalastat, HEK-293 cell lysate, mean ± SEM, n = 20
[7] = HEK293, 10 μM migalastat minus baseline, read-out: Absolute increase at 10 μM (% WT)

SMILES: OC[C@H]1NC[C@H](O)[C@@H](O)[C@H]1O [migalastat]
- α-Gal A activity at 10 μM (fold over baseline) ([1]; 10 μM migalastat): 8.12 fold over baseline
- +Migalastat α-Gal A activity [1, 6]: 15547 ± 353 nmol/mg/h
- +Migalastat α-Gal A activity % WT [1, 6]: 44.5 ± 1.0 % WT
- activation at 10 µM [1, 7]: 39%
- α-Gal A activity at 10 μM (fold over baseline) ([2]; 10 μM migalastat): 2.37 fold over baseline
- +Migalastat α-Gal A activity [2, 6]: 22630 ± 801 nmol/mg/h
- +Migalastat α-Gal A activity % WT [2, 6]: 78.1 ± 5.8 % WT
- activation at 10 µM [2, 7]: 45.5%
- α-Gal A activity at 10 μM (fold over baseline) ([3]; 10 μM migalastat): 2.07 fold over baseline
- +Migalastat α-Gal A activity [3, 6]: 23417 ± 1077 nmol/mg/h
- +Migalastat α-Gal A activity % WT [3, 6]: 80.2 ± 5.9 % WT
- activation at 10 µM [3, 7]: 41.3%
- α-Gal A activity at 10 μM (fold over baseline) ([4]; 10 μM migalastat): 3.41 fold over baseline
- +Migalastat α-Gal A activity [4, 6]: 16371 ± 647 nmol/mg/h
- +Migalastat α-Gal A activity % WT [4, 6]: 48.8 ± 2.2 % WT
- activation at 10 µM [4, 7]: 34.4%
- α-Gal A activity at 10 μM (fold over baseline) ([5]; 10 μM migalastat): 10.40 fold over baseline
- +Migalastat α-Gal A activity [5, 6]: 7003 ± 305 nmol/mg/h
- +Migalastat α-Gal A activity % WT [5, 6]: 20.7 ± 0.8 % WT
- activation at 10 µM [5, 7]: 18.7%
